The values that follow come from ChEMBL document CHEMBL5465560, “Selectivity Literature for EUbOPEN Chemogenomic Library” (2024).

For test [1], the target named is Ribosomal protein S6 kinase alpha-3 (Homo sapiens, UniProt P51812). Put plainly: Selectivity interaction (KinomeScan (DiscoverX)) EUB0000607a RPS6KA3. The note with it: at 10 µM.
Test [2] addresses Ribosomal protein S6 kinase alpha-5 (Homo sapiens) (UniProt O75582). Description: Selectivity interaction (KinomeScan (DiscoverX)) EUB0000666a RPS6KA5. The note with it: at 10 µM.
The target in test [3] is T1, Serine/threonine-protein kinase Sgk1 (Homo sapiens) (UniProt O00141).
T1 sequence (whole entry): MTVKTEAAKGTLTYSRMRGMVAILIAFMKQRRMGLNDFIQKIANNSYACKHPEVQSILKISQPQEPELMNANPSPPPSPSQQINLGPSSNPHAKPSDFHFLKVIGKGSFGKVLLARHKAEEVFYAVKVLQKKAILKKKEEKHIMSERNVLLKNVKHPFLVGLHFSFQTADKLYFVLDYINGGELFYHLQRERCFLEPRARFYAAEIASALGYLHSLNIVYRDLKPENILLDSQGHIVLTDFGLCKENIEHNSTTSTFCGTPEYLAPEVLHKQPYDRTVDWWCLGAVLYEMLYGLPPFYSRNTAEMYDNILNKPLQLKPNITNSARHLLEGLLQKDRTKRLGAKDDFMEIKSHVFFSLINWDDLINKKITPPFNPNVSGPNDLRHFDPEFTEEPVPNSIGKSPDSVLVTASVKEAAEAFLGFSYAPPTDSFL
Put plainly: Selectivity interaction (KinomeScan (DiscoverX)) EUB0000666a SGK1. The note with it: at 10 µM.

The target of test [4] is Acetylcholine receptor subunit alpha (Homo sapiens, UniProt P02708). Put plainly: Selectivity interaction (Panel of kinases, GPCRs, ion channels and transporters (enzymatic assay)) EUB0000266bCl CHRNA1.
Chain of Acetylcholine receptor subunit alpha (P02708 whole entry): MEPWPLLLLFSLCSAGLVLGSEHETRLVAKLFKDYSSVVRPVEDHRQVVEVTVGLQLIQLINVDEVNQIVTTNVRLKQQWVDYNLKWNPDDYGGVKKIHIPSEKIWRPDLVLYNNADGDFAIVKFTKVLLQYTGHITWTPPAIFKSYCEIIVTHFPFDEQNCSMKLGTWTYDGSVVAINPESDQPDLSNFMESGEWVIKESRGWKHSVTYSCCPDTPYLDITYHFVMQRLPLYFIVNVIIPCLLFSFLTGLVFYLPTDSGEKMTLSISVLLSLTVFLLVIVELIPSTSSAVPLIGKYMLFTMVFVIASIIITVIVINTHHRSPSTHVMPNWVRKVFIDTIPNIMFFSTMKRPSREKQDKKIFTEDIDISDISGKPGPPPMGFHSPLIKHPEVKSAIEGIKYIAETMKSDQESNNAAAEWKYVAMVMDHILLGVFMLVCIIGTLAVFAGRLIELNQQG
Test [5] concerns the target T2, NUAK family SNF1-like kinase 2 (Homo sapiens) (UniProt Q9H093).
T2 sequence (whole entry): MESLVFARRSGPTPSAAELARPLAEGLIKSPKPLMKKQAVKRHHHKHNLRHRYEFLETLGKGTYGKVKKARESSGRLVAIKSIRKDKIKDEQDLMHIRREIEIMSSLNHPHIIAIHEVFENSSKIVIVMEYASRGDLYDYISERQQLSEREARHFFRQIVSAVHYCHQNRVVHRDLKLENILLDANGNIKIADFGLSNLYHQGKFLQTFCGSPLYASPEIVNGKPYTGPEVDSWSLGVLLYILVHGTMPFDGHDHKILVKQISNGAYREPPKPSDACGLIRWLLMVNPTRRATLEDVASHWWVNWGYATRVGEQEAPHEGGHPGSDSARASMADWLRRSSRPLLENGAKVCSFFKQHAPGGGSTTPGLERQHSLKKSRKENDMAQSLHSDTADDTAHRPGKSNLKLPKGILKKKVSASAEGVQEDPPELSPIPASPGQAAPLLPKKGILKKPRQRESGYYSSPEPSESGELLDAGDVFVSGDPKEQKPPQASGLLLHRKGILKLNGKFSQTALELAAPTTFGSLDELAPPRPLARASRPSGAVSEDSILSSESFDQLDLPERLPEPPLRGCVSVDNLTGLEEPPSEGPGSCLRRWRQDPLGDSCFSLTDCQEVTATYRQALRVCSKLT
Put plainly: Selectivity interaction (ActivX KiNativ screen (ex vivo kinase selectivity in human PBMCs)) EUB0001619a NUAK2. It is filed as cell-based. The note with it: PBMC, at 1 µM.

Test [6] has as its target MAP kinase-activated protein kinase 2 (Homo sapiens, UniProt P49137). Put plainly: Selectivity interaction (KinomeScan (DiscoverX)) EUB0001619a MAPKAPK2. The note with it: at 1 µM.
Test [7] has as its target Proto-oncogene tyrosine-protein kinase ROS (Homo sapiens) (UniProt P08922). Put plainly: Selectivity interaction (KinomeScan (DiscoverX)) EUB0001619a ROS1. The note with it: at 1 µM.
Test [8] deals with T3, Mitogen-activated protein kinase kinase kinase 3 (Homo sapiens) (UniProt Q99759).
T3 sequence (whole entry): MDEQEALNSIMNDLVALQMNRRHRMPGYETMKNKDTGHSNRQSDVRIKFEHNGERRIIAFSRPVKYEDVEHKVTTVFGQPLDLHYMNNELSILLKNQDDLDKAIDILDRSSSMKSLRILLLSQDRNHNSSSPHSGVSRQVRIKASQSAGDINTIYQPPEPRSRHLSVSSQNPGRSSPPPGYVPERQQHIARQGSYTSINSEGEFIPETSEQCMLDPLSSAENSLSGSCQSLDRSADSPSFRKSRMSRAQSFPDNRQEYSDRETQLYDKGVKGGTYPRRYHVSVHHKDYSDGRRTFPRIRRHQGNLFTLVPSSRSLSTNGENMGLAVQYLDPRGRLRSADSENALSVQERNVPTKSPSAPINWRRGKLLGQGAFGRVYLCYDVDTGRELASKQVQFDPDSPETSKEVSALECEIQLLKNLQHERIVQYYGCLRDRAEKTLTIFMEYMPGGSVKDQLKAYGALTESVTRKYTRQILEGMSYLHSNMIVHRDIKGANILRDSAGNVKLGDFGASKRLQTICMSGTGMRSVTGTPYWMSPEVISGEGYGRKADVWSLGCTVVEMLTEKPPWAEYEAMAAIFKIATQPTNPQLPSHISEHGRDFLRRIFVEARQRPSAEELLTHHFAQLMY
Description: Selectivity interaction (ActivX KiNativ screen (kinase selectivity in THP-1 cell lysates)) EUB0000639a MAP3K3. It is filed as subcellular. The note with it: lysate, at 0.01 µM.

Test [9] concerns the target Death-associated protein kinase 3 (Homo sapiens) (UniProt O43293). Put plainly: Selectivity interaction (Kinase panel (Invitrogen)) EUB0000639a DAPK3. The note with it: at 200 nM.
Test [10] has as its target Ephrin type-A receptor 7 (Homo sapiens) (UniProt Q15375). Description: Selectivity interaction (Kinase panel (Invitrogen)) EUB0000639a EPHA7. The note with it: at 200 nM.
Test [11] addresses Serine/threonine-protein kinase 26 (Homo sapiens, UniProt Q9P289). The note with it: at 10 µM.
Test [12] addresses Tyrosine-protein kinase JAK1 (Homo sapiens, UniProt P23458). Description: Selectivity interaction (NanoBRET assay (HEK293T cells)) EUB0001559a JAK1. It is filed as cell-based, HEK-293T.
For test [13], the target named is TGF-beta receptor type-2 (Homo sapiens) (UniProt P37173). Put plainly: Selectivity interaction (KinomeScan (DiscoverX)) EUB0000618a TGFBR2. The note with it: at 10 µM.
Chain of TGF-beta receptor type-2 (Homo sapiens) (P37173 whole entry): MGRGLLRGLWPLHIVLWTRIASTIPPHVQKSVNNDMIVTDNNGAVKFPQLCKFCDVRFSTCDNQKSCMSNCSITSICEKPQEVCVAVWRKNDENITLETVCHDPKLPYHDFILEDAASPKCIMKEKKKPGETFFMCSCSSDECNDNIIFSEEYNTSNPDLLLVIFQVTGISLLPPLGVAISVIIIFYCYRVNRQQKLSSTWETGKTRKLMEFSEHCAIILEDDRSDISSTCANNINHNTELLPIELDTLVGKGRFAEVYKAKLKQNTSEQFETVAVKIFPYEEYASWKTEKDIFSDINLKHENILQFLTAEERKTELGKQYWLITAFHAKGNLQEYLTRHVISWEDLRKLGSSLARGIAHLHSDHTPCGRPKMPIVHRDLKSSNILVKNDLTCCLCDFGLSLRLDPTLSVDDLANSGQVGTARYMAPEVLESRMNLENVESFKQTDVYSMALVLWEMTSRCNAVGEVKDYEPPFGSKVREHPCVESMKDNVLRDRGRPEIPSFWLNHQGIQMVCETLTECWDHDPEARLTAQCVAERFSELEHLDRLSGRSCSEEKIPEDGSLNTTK
Test [14] concerns the target Eukaryotic translation initiation factor 2-alpha kinase 1 (Homo sapiens) (UniProt Q9BQI3). Description: Selectivity interaction (KinomeScan (DiscoverX)) EUB0000595a EIF2AK1. The note with it: at 10 µM.

Chain of Eukaryotic translation initiation factor 2-alpha kinase 1 (Homo sapiens) (Q9BQI3 whole entry): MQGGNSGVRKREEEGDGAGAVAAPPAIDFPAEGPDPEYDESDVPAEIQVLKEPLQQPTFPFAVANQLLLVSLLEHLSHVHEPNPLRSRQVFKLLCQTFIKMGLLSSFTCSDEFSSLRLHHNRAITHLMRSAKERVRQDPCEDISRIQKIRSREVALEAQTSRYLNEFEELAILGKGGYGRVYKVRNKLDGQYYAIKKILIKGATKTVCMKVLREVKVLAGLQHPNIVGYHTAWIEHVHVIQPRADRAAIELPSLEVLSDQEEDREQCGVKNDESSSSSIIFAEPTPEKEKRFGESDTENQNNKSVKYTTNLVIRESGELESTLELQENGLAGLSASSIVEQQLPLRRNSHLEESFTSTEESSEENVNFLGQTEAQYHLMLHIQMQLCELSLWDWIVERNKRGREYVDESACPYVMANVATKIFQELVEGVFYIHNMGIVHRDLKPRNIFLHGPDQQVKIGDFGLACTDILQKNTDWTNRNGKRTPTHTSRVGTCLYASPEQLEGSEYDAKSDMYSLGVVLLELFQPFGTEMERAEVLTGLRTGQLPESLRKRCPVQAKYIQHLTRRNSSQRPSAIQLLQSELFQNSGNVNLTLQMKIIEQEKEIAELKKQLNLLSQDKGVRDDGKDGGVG
Chain of Serine/threonine-protein kinase 26 (Q9P289 2-416 limits assumed): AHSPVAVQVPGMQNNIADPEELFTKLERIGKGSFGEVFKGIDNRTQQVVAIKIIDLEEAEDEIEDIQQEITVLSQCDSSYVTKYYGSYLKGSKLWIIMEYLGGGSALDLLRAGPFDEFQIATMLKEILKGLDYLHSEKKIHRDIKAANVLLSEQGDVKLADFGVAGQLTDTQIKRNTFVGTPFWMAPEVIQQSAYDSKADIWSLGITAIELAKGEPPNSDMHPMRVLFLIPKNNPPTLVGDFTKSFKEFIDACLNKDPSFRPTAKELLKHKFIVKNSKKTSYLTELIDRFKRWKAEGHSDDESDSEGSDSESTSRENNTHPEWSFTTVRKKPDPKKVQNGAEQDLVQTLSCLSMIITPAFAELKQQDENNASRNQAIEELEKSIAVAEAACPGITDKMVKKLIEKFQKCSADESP
Chain of Ribosomal protein S6 kinase alpha-3 (P51812 whole entry): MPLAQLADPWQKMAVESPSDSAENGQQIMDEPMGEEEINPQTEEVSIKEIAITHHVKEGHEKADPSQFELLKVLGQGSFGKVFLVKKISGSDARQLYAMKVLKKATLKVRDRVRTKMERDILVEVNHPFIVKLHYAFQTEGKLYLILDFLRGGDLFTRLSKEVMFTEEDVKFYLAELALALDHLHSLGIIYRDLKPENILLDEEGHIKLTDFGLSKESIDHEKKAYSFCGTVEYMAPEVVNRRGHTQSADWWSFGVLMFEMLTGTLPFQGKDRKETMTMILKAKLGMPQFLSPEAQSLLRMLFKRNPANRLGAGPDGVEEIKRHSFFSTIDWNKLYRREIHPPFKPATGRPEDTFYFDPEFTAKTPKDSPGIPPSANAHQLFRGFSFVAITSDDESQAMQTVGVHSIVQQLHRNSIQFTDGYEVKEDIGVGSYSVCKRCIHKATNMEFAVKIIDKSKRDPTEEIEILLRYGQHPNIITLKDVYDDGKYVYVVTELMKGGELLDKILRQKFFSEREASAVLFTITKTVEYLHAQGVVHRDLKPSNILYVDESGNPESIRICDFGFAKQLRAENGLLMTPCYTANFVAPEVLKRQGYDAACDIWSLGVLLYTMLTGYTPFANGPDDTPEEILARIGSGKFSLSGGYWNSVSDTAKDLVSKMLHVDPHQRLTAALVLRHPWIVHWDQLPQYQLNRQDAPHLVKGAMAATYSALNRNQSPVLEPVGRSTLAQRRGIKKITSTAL
Chain of Ribosomal protein S6 kinase alpha-5 (Homo sapiens) (O75582 whole entry, looked up): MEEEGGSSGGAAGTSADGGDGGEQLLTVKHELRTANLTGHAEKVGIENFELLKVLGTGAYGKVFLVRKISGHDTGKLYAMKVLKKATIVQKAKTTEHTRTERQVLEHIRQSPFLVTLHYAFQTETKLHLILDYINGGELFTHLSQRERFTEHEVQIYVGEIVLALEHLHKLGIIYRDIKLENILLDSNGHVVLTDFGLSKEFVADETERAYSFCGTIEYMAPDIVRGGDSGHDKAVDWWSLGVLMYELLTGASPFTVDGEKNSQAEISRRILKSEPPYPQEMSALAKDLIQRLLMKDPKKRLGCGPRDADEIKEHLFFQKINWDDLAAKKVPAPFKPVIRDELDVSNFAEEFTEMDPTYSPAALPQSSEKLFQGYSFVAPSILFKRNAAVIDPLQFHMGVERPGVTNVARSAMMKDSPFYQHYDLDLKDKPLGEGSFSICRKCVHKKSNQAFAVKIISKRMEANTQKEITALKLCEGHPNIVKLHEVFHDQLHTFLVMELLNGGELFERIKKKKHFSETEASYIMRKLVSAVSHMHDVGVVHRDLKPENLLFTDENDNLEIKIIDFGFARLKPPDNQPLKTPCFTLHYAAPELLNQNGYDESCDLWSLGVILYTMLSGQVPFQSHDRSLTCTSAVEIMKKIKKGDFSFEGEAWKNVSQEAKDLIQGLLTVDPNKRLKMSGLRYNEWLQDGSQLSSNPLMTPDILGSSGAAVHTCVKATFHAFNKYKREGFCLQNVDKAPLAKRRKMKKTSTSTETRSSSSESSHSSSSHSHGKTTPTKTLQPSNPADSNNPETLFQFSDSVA
Chain of MAP kinase-activated protein kinase 2 (P49137 whole entry, looked up): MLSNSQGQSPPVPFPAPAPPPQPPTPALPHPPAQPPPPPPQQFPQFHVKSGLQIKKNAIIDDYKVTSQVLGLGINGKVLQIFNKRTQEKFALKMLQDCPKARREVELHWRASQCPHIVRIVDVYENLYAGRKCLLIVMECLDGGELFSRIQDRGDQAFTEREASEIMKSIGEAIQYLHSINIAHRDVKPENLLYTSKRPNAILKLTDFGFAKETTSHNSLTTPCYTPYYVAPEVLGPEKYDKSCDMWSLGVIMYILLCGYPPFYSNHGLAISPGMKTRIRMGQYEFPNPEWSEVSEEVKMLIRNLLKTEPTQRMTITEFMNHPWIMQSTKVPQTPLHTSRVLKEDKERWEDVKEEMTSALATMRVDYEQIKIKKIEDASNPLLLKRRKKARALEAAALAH
Chain of Ephrin type-A receptor 7 (Homo sapiens) (Q15375 28-998 limits assumed): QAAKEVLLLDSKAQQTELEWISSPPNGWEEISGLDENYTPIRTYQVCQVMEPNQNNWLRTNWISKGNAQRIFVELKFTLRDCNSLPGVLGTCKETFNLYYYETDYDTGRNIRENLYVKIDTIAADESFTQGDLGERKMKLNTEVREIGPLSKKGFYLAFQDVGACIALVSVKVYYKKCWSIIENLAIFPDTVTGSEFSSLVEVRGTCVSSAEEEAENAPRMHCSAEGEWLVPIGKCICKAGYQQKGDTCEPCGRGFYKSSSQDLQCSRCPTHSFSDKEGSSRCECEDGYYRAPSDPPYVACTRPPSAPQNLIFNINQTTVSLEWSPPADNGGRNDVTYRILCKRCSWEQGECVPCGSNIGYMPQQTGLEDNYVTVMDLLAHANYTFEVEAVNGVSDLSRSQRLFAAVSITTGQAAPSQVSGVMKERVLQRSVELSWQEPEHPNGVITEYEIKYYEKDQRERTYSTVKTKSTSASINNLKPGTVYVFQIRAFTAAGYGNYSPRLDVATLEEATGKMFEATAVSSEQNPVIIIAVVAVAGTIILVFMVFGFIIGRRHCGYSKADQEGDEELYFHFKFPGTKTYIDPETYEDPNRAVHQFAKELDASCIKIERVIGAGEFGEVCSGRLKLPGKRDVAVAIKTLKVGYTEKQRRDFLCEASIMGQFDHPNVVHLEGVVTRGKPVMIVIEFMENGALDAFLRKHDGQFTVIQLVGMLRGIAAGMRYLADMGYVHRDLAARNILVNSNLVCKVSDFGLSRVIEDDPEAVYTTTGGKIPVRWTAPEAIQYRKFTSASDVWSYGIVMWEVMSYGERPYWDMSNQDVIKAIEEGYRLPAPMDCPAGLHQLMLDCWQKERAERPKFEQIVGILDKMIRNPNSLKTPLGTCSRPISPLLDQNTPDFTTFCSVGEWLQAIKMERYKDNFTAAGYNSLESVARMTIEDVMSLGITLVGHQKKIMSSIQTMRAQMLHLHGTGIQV

`CNC(=O)Nc1ccc(-c2nc(N3CC4CCC(C3)O4)c3cnn(C4CCC5(CC4)OCCO5)c3n2)cc1`: the % of control in test [1] came out at 100%.

As to `O=C(NOC[C@H](O)CO)c1ccc(F)c(F)c1Nc1ccc(I)cc1F`, the % of control in test [2] and in [3] was 100% each time.

Compound `CCn1c(-c2nc3cc(C(=O)N4CCCC(N)C4)ccc3n2C)cc2ccccc21` (centres undefined) yielded a pXC50 in test [4] of under 4.3 M.

As for `N#Cc1cccc(-c2c[nH]c3ncnc(N4CCOCC4)c23)c1`, in test [5], the % of inhibition turned out to be 18%. Besides, the % of control in [6] is 100%; in test [7], 90%.

On to `CC[C@@H]1[C@H](F)C(=O)N[C@@H]1COc1nccc2cc(C(N)=O)c(OC)cc12` [ZIMLOVISERTIB], for which the % of inhibition in [8] is -6.1%; in test [9] it was 20.3%; in test [10] it was -7.96%.

`CCN(CC)CCCCNc1ncc2cc(-c3cc(OC)cc(OC)c3)c(NC(=O)NC(C)(C)C)nc2n1` yielded a % of control in test [11] of 100%.

`CN(C(=O)c1cnn2cccnc12)c1cc2c(cc1N1CCOCC1)C(=O)N(C[C@@H](F)C(C)(C)O)C2`: in test [12], the EC50 is over 50 µM.

In test [13], `O[C@H]1CC[C@H](Nc2ncc3nc(Nc4c(F)cc(F)cc4F)n([C@H]4CCOC4)c3n2)CC1` returned a % of control of 71%.

Take `COCC(=O)NC/C=C/c1ccc2ncnc(Nc3ccc(Oc4ccc(C)nc4)c(C)c3)c2c1` [CP-724714]: the % of control in test [14] was determined as 100%.

A word on the EC50: it is the concentration that produces a half-maximal response. Read a low EC50 as greater potency.
